Test results taken from the supplement of paper PMC4862054.

What was measured:
Settings in all cases: incubation time: 72 h
CAL-85-1 [1] = assay: drug sensitivity score (DSS), CellTiter-Glo (DSS (AUC-based score)); higher = stronger drug effect (viability inhibition or cytotoxicity); extreme values may be limits of the assay
Procedure, shortened: (§1)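 Breast cancer cell lines (20 µl suspension) were seeded into 384-well plates holding compound at 5 concentrations in 10-fold steps over a compound-specific 10,000-fold range, then incubated 72 h. CellTox Green fluorescence (485/520 nm) was read first, then CellTiter-Glo luminescence after 10 min at room temperature. Each plate was normalised to 0.1 % DMSO and a positive kill control. The drug sensitivity score was calculated from the area under the fitted dose-response curve.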

CAL-120 [2] = assay: as above
Procedure, shortened: as §1

BT-474 = assay: as above
Procedure, shortened: as §1

MDA-MB-436 = assay: as above
Procedure, shortened: as §1

CAL-51 [3] = assay: as above
Procedure, shortened: as §1

HCC1143 = assay: as above
Procedure, shortened: as §1

MDA-MB-453 = assay: as above
Procedure, shortened: as §1

CAL-148 = assay: as above
Procedure, shortened: as §1

MDA-MB-231 [4] = assay: as above
Procedure, shortened: as §1

HCC1937 [5] = assay: as above
Procedure, shortened: as §1

SK-BR-3 = assay: as above
Procedure, shortened: as §1

MFM-223 [6] = assay: as above
Procedure, shortened: as §1

HCC1599 = assay: as above
Procedure, shortened: as §1

BT-549 = assay: as above
Procedure, shortened: as §1

Hs578T [7] = assay: as above
Procedure, shortened: as §1

MCF-10A = assay: as above
Procedure, shortened: as §1

CAL-85-1 [8] = assay: normalised viability (% of control), CellTiter-Blue; higher = more viable cells (about 100 = DMSO control)
Procedure, shortened: (§2)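 After 72 h on compound-loaded 384-well plates, breast cancer cell lines received 2.5 µl CellTiter-Blue reagent for 2 h at 37 °C. Fluorescence at 560/590 nm was scaled per plate so that vehicle was 100 and a positive kill control was 0. The value stands for normalised viability at a single listed concentration of the series.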

CAL-120 [9] = assay: as above
Procedure, shortened: as §2

CAL-51 [10] = assay: as above
Procedure, shortened: as §2

MDA-MB-468 = assay: as above
Procedure, shortened: as §2

MDA-MB-231 [11] = assay: as above
Procedure, shortened: as §2

HCC1937 [12] = assay: as above
Procedure, shortened: as §2

MFM-223 [13] = assay: as above
Procedure, shortened: as §2

DU-4475 = assay: as above
Procedure, shortened: as §2

Hs578T [14] = assay: as above
Procedure, shortened: as §2

Compound: CO[C@@H]1[C@H](N(C)C(=O)c2ccccc2)C[C@H]2O[C@]1(C)n1c3ccccc3c3c4c(c5c6ccccc6n2c5c31)C(=O)NC4 [Midostaurin]
- drug sensitivity score (CAL-85-1 [1]): 2.25
- drug sensitivity score (CAL-120 [2]): 9.74
- drug sensitivity score (BT-474): 10.5
- drug sensitivity score (MDA-MB-436): 3.96
- drug sensitivity score (CAL-51 [3]): 15.9
- drug sensitivity score (HCC1143): 8.75
- drug sensitivity score (MDA-MB-453): 0
- drug sensitivity score (CAL-148): 0
- drug sensitivity score (MDA-MB-231 [4]): 10.8
- drug sensitivity score (HCC1937 [5]): 7.38
- drug sensitivity score (SK-BR-3): 7.66
- drug sensitivity score (MFM-223 [6]): 3.44
- drug sensitivity score (HCC1599): 0
- drug sensitivity score (BT-549): 13.8
- drug sensitivity score (Hs578T [7]): 15.7
- drug sensitivity score (MCF-10A): 17
- normalised viability (CAL-85-1 [8]; 3 nM): 112%
- normalised viability (CAL-85-1 [8]; 30 nM): 111%
- normalised viability (CAL-85-1 [8]; 100 nM): 103%
- normalised viability (CAL-120 [9]; 10 nM): 126%
- normalised viability (CAL-120 [9]; 1000 nM): 55.4%
- normalised viability (CAL-120 [9]; 10000 nM): 44.9%
- normalised viability (CAL-51 [10]; 3 nM): 97.5%
- normalised viability (CAL-51 [10]; 30 nM): 87.9%
- normalised viability (CAL-51 [10]; 100 nM): 82.4%
- normalised viability (MDA-MB-468; 10 nM): 98.5%
- normalised viability (MDA-MB-468; 1000 nM): 46.6%
- normalised viability (MDA-MB-468; 10000 nM): 41.4%
- normalised viability (MDA-MB-231 [11]; 10 nM): 92.8%
- normalised viability (MDA-MB-231 [11]; 1000 nM): 49.1%
- normalised viability (MDA-MB-231 [11]; 10000 nM): 42.4%
- normalised viability (HCC1937 [12]; 10 nM): 111%
- normalised viability (HCC1937 [12]; 1000 nM): 56.5%
- normalised viability (HCC1937 [12]; 10000 nM): 44.9%
- normalised viability (MFM-223 [13]; 10 nM): 96.3%
- normalised viability (MFM-223 [13]; 1000 nM): 74.4%
- normalised viability (MFM-223 [13]; 10000 nM): 64.2%
- normalised viability (DU-4475; 3 nM): 94.7%
- normalised viability (DU-4475; 30 nM): 92.4%
- normalised viability (DU-4475; 100 nM): 101%
- normalised viability (Hs578T [14]; 10 nM): 129%
- normalised viability (Hs578T [14]; 1000 nM): 31%
- normalised viability (Hs578T [14]; 10000 nM): 15.6%

Compound: CCNC(=O)CCC/C=C\C[C@@H]1[C@@H](/C=C/[C@@H](O)CCc2ccccc2)[C@H](O)C[C@@H]1O [Bimatoprost]
- drug sensitivity score (CAL-85-1 [1]): 0
- drug sensitivity score (CAL-120 [2]): 0
- drug sensitivity score (BT-474): 0
- drug sensitivity score (MDA-MB-436): 0
- drug sensitivity score (CAL-51 [3]): 0
- drug sensitivity score (HCC1143): 0
- drug sensitivity score (MDA-MB-453): 0
- drug sensitivity score (CAL-148): 0
- drug sensitivity score (MDA-MB-231 [4]): 0
- drug sensitivity score (HCC1937 [5]): 0
- drug sensitivity score (SK-BR-3): 0
- drug sensitivity score (MFM-223 [6]): 0
- drug sensitivity score (HCC1599): 0
- drug sensitivity score (BT-549): 0
- drug sensitivity score (Hs578T [7]): 0
- drug sensitivity score (MCF-10A): 0
- normalised viability (CAL-85-1 [8]; 1.65 nM): 97.1%
- normalised viability (CAL-85-1 [8]; 16.5 nM): 92.5%
- normalised viability (CAL-85-1 [8]; 55 nM): 101%
- normalised viability (CAL-120 [9]; 5.5 nM): 95.3%
- normalised viability (CAL-120 [9]; 550 nM): 92.4%
- normalised viability (CAL-120 [9]; 5500 nM): 94%
- normalised viability (CAL-51 [10]; 1.65 nM): 124%
- normalised viability (CAL-51 [10]; 16.5 nM): 114%
- normalised viability (CAL-51 [10]; 55 nM): 112%
- normalised viability (MDA-MB-468; 5.5 nM): 97.1%
- normalised viability (MDA-MB-468; 550 nM): 123%
- normalised viability (MDA-MB-468; 5500 nM): 111%
- normalised viability (MDA-MB-231 [11]; 5.5 nM): 100%
- normalised viability (MDA-MB-231 [11]; 550 nM): 97.2%
- normalised viability (MDA-MB-231 [11]; 5500 nM): 97.6%
- normalised viability (HCC1937 [12]; 5.5 nM): 106%
- normalised viability (HCC1937 [12]; 550 nM): 99.9%
- normalised viability (HCC1937 [12]; 5500 nM): 89.6%
- normalised viability (MFM-223 [13]; 5.5 nM): 112%
- normalised viability (MFM-223 [13]; 550 nM): 104%
- normalised viability (MFM-223 [13]; 5500 nM): 96.7%
- normalised viability (DU-4475; 1.65 nM): 112%
- normalised viability (DU-4475; 16.5 nM): 99.4%
- normalised viability (DU-4475; 55 nM): 95.5%
- normalised viability (Hs578T [14]; 5.5 nM): 110%
- normalised viability (Hs578T [14]; 550 nM): 116%
- normalised viability (Hs578T [14]; 5500 nM): 98.1%

Compound: C=CCN(/C=C1/C(=O)O[C@H](COC)[C@@]2(C)C1=C(O)C(=O)C1=C2[C@H](OC(C)=O)C[C@]2(C)C(=O)CC[C@@H]12)CC=C [PX-866]
- normalised viability (CAL-85-1 [8]; 3 nM): 111%
- normalised viability (CAL-85-1 [8]; 30 nM): 97.4%
- normalised viability (CAL-85-1 [8]; 100 nM): 102%
- normalised viability (CAL-120 [9]; 10 nM): 94.4%
- normalised viability (CAL-120 [9]; 1000 nM): 85.9%
- normalised viability (CAL-120 [9]; 10000 nM): 71.3%
- normalised viability (CAL-51 [10]; 3 nM): 118%
- normalised viability (CAL-51 [10]; 30 nM): 107%
- normalised viability (CAL-51 [10]; 100 nM): 103%
- normalised viability (MDA-MB-468; 10 nM): 112%
- normalised viability (MDA-MB-468; 1000 nM): 62.7%
- normalised viability (MDA-MB-468; 10000 nM): 21.9%
- normalised viability (MDA-MB-231 [11]; 10 nM): 92.9%
- normalised viability (MDA-MB-231 [11]; 1000 nM): 72.6%
- normalised viability (MDA-MB-231 [11]; 10000 nM): 50%
- normalised viability (HCC1937 [12]; 10 nM): 106%
- normalised viability (HCC1937 [12]; 1000 nM): 73.6%
- normalised viability (HCC1937 [12]; 10000 nM): 59.7%
- normalised viability (MFM-223 [13]; 10 nM): 86.5%
- normalised viability (MFM-223 [13]; 1000 nM): 96.9%
- normalised viability (MFM-223 [13]; 10000 nM): 95.9%
- normalised viability (DU-4475; 3 nM): 109%
- normalised viability (DU-4475; 30 nM): 96.1%
- normalised viability (DU-4475; 100 nM): 92.7%
- normalised viability (Hs578T [14]; 10 nM): 120%
- normalised viability (Hs578T [14]; 1000 nM): 89.4%
- normalised viability (Hs578T [14]; 10000 nM): 40.1%

Compound: CN[C@@H](C)C(=O)N[C@H]1CN(C(=O)CC(C)C)CC[C@H]2CC[C@@H](C(=O)NC(c3ccccc3)c3ccccc3)N2C1=O [AT-406]
- drug sensitivity score (CAL-85-1 [1]): 7.99
- drug sensitivity score (CAL-120 [2]): 0
- drug sensitivity score (BT-474): 20.1
- drug sensitivity score (MDA-MB-436): 0
- drug sensitivity score (CAL-51 [3]): 0
- drug sensitivity score (HCC1143): 0
- drug sensitivity score (MDA-MB-453): 4.36
- drug sensitivity score (CAL-148): 0
- drug sensitivity score (MDA-MB-231 [4]): 16
- drug sensitivity score (HCC1937 [5]): 0
- drug sensitivity score (SK-BR-3): 0
- drug sensitivity score (MFM-223 [6]): 0
- drug sensitivity score (HCC1599): 0
- drug sensitivity score (BT-549): 17.3
- drug sensitivity score (Hs578T [7]): 0
- drug sensitivity score (MCF-10A): 0

Compound: COc1c2occc2cc2ccc(=O)oc12 [Methoxsalen]
- normalised viability (CAL-85-1 [8]; 3 nM): 92.9%
- normalised viability (CAL-85-1 [8]; 30 nM): 92.6%
- normalised viability (CAL-85-1 [8]; 100 nM): 92.5%
- normalised viability (CAL-120 [9]; 10 nM): 99.1%
- normalised viability (CAL-120 [9]; 1000 nM): 101%
- normalised viability (CAL-120 [9]; 10000 nM): 104%
- normalised viability (CAL-51 [10]; 3 nM): 109%
- normalised viability (CAL-51 [10]; 30 nM): 109%
- normalised viability (CAL-51 [10]; 100 nM): 104%
- normalised viability (MDA-MB-468; 10 nM): 107%
- normalised viability (MDA-MB-468; 1000 nM): 112%
- normalised viability (MDA-MB-468; 10000 nM): 105%
- normalised viability (MDA-MB-231 [11]; 10 nM): 102%
- normalised viability (MDA-MB-231 [11]; 1000 nM): 99.1%
- normalised viability (MDA-MB-231 [11]; 10000 nM): 112%
- normalised viability (HCC1937 [12]; 10 nM): 68.3%
- normalised viability (HCC1937 [12]; 1000 nM): 36%
- normalised viability (HCC1937 [12]; 10000 nM): 77.7%
- normalised viability (MFM-223 [13]; 10 nM): 100%
- normalised viability (MFM-223 [13]; 1000 nM): 101%
- normalised viability (MFM-223 [13]; 10000 nM): 50.5%
- normalised viability (DU-4475; 3 nM): 95.6%
- normalised viability (DU-4475; 30 nM): 111%
- normalised viability (DU-4475; 100 nM): 111%
- normalised viability (Hs578T [14]; 10 nM): 55.3%
- normalised viability (Hs578T [14]; 1000 nM): 138%
- normalised viability (Hs578T [14]; 10000 nM): 110%

Compound: Cc1nc(C(=O)NCC(=O)O)c(O)c2ccc(Oc3ccccc3)cc12 [FG-4592]
- drug sensitivity score (CAL-85-1 [1]): 0
- drug sensitivity score (CAL-120 [2]): 0
- drug sensitivity score (BT-474): 0
- drug sensitivity score (MDA-MB-436): 0
- drug sensitivity score (CAL-51 [3]): 0
- drug sensitivity score (HCC1143): 0
- drug sensitivity score (MDA-MB-453): 0
- drug sensitivity score (CAL-148): 0
- drug sensitivity score (MDA-MB-231 [4]): 0
- drug sensitivity score (HCC1937 [5]): 0
- drug sensitivity score (SK-BR-3): 0
- drug sensitivity score (MFM-223 [6]): 0
- drug sensitivity score (HCC1599): 0
- drug sensitivity score (BT-549): 0
- drug sensitivity score (Hs578T [7]): 0
- drug sensitivity score (MCF-10A): 0
